Test results published in PubChem BioAssay (NCI).
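In this assay, cells in 96-well plates receive the compound at five concentrations for 48 hours. Endpoints are linearly interpolated between the surrounding concentrations. TGI is the concentration that stops growth completely.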

What was measured:
Assay in all cases: growth of human tumour cells (NCI), 48 h
A549 NSCLC = system: A549 NSCLC
EKVX NSCLC = system: EKVX NSCLC
IGROV1 ovarian = system: IGROV1 ovarian
HCT-15 colon = system: HCT-15 colon
HCT-116 colon = system: HCT-116 colon
M14 melanoma = system: M14 melanoma
SK-MEL-28 melanoma = system: SK-MEL-28 melanoma
OVCAR-4 ovarian = system: OVCAR-4 ovarian
COLO 205 colon = system: COLO 205 colon
KM12 colon = system: KM12 colon
DU-145 prostate = system: DU-145 prostate
HOP-92 NSCLC = system: HOP-92 NSCLC
HCC-2998 colon = system: HCC-2998 colon
NCI-H23 lung = system: NCI-H23 lung
T-47D breast = system: T-47D breast
RPMI-8226 leukemia = system: RPMI-8226 leukemia
HL-60(TB) leukemia = system: HL-60(TB) leukemia
786-0 renal = system: 786-0 renal
SF-295 CNS = system: SF-295 CNS
TK-10 renal = system: TK-10 renal
RXF 393 renal = system: RXF 393 renal
HS 578T breast = system: HS 578T breast
HOP-62 NSCLC = system: HOP-62 NSCLC
SK-OV-3 ovarian = system: SK-OV-3 ovarian
OVCAR-8 ovarian = system: OVCAR-8 ovarian
U251 CNS = system: U251 CNS
OVCAR-5 ovarian = system: OVCAR-5 ovarian
A498 renal = system: A498 renal
SNB-19 CNS = system: SNB-19 CNS
UACC-257 melanoma = system: UACC-257 melanoma
MCF7 breast = system: MCF7 breast
SK-MEL-5 melanoma = system: SK-MEL-5 melanoma
K-562 leukemia = system: K-562 leukemia
ACHN renal = system: ACHN renal
SW-620 colon = system: SW-620 colon
SF-268 CNS = system: SF-268 CNS
NCI/ADR-RES ovarian = system: NCI/ADR-RES ovarian
SR leukemia = system: SR leukemia
HT29 colon = system: HT29 colon
MALME-3M melanoma = system: MALME-3M melanoma
SNB-75 CNS = system: SNB-75 CNS
NCI-H460 lung = system: NCI-H460 lung
UO-31 renal = system: UO-31 renal
MDA-N = system: MDA-N
MOLT-4 leukemia = system: MOLT-4 leukemia
CAKI-1 renal = system: CAKI-1 renal
PC-3 prostate = system: PC-3 prostate
SF-539 CNS = system: SF-539 CNS
SN12C renal = system: SN12C renal
MDA-MB-231 breast = system: MDA-MB-231 breast
LOX IMVI melanoma = system: LOX IMVI melanoma
UACC-62 melanoma = system: UACC-62 melanoma
NCI-H226 lung = system: NCI-H226 lung
CCRF-CEM leukemia = system: CCRF-CEM leukemia
SK-MEL-2 melanoma = system: SK-MEL-2 melanoma
OVCAR-3 ovarian = system: OVCAR-3 ovarian
MDA-MB-435 = system: MDA-MB-435
BT-549 breast = system: BT-549 breast

In the case of `CCOC(=O)c1c(-c2ccccc2)[nH]c2ccccc2c1=O`, the TGI (A549 NSCLC) is reported as > 100 µM, the TGI (EKVX NSCLC) is reported as > 100 µM and the TGI (IGROV1 ovarian) is reported as > 100 µM. The TGI (HCT-15 colon) was > 100 µM, the TGI (HCT-116 colon) was > 100 µM and the TGI (M14 melanoma) was > 100 µM. For the same compound, the TGI (SK-MEL-28 melanoma) was > 100 µM, the TGI (OVCAR-4 ovarian) was > 100 µM and the TGI (COLO 205 colon) was > 100 µM. For the same compound, the TGI (KM12 colon) was > 100 µM, the TGI (DU-145 prostate) was > 100 µM and the TGI (HOP-92 NSCLC) was > 100 µM. The TGI (HCC-2998 colon) was > 100 µM, the TGI (NCI-H23 lung) was > 100 µM and the TGI (T-47D breast) was > 100 µM. For the same compound, the TGI (RPMI-8226 leukemia) was > 100 µM, the TGI (HL-60(TB) leukemia) was > 100 µM and the TGI (786-0 renal) was > 100 µM. For the same compound, the TGI (SF-295 CNS) was > 100 µM, the TGI (TK-10 renal) was > 100 µM and the TGI (RXF 393 renal) was > 100 µM. The TGI (HS 578T breast) was > 100 µM, the TGI (HOP-62 NSCLC) was > 100 µM and the TGI (SK-OV-3 ovarian) was > 100 µM. The TGI (OVCAR-8 ovarian) was > 100 µM, the TGI (U251 CNS) was > 100 µM and the TGI (OVCAR-5 ovarian) was > 100 µM. For the same compound, the TGI (A498 renal) was > 100 µM, the TGI (SNB-19 CNS) was > 100 µM and the TGI (UACC-257 melanoma) was > 100 µM. The TGI (MCF7 breast) was > 100 µM, the TGI (SK-MEL-5 melanoma) was > 100 µM and the TGI (K-562 leukemia) was > 100 µM. The TGI (ACHN renal) was > 100 µM, the TGI (SW-620 colon) was > 100 µM and the TGI (SF-268 CNS) was > 100 µM. The TGI (NCI/ADR-RES ovarian) was > 100 µM, the TGI (SR leukemia) was > 100 µM and the TGI (HT29 colon) was > 100 µM. The TGI (MALME-3M melanoma) was > 100 µM, the TGI (SNB-75 CNS) was > 100 µM and the TGI (NCI-H460 lung) was > 100 µM. The TGI (UO-31 renal) was > 100 µM, the TGI (MDA-N) was > 100 µM and the TGI (MOLT-4 leukemia) was > 100 µM. For the same compound, the TGI (CAKI-1 renal) was > 100 µM and the TGI (PC-3 prostate) was > 100 µM.

With `COc1cccc2c(=O)c3c(O)c4cc(N(C)C)ccc4c(OC(C)=O)c3oc12` the TGI (A549 NSCLC) was > 100 µM, the TGI (EKVX NSCLC) was 25.8 µM and the TGI (HCT-15 colon) was 25.3 µM. For the same compound, the TGI (HCT-116 colon) was 26.8 µM, the TGI (M14 melanoma) was 29.9 µM and the TGI (SK-MEL-28 melanoma) was 22.3 µM. It also gave a TGI (OVCAR-4 ovarian) of 32 µM, a TGI (COLO 205 colon) of 17.8 µM and a TGI (KM12 colon) of 34.8 µM. For the same compound, the TGI (DU-145 prostate) was 37.5 µM, the TGI (HOP-92 NSCLC) was 39.3 µM and the TGI (HCC-2998 colon) was 32.5 µM. The TGI (NCI-H23 lung) was 38.4 µM, the TGI (SF-539 CNS) was 40.4 µM and the TGI (SN12C renal) was 25.5 µM. It also gave a TGI (RPMI-8226 leukemia) of 52.6 µM, a TGI (MDA-MB-231 breast) of 25 µM and a TGI (LOX IMVI melanoma) of 24.3 µM. The TGI (UACC-62 melanoma) was 28 µM, the TGI (HL-60(TB) leukemia) was 14.2 µM and the TGI (NCI-H226 lung) was 75.3 µM. For the same compound, the TGI (786-0 renal) was 24 µM, the TGI (SF-295 CNS) was > 100 µM and the TGI (TK-10 renal) was 29.3 µM. For the same compound, the TGI (RXF 393 renal) was 18.6 µM, the TGI (HS 578T breast) was 69.5 µM and the TGI (HOP-62 NSCLC) was 41.5 µM. For the same compound, the TGI (CCRF-CEM leukemia) was 13.8 µM, the TGI (SK-OV-3 ovarian) was > 100 µM and the TGI (OVCAR-8 ovarian) was 37.4 µM. For the same compound, the TGI (U251 CNS) was 30.2 µM, the TGI (OVCAR-5 ovarian) was > 100 µM and the TGI (A498 renal) was 60.8 µM. The TGI (SNB-19 CNS) was 91.6 µM, the TGI (UACC-257 melanoma) was 32.2 µM and the TGI (MCF7 breast) was 61.7 µM. It also gave a TGI (SK-MEL-5 melanoma) of 25.1 µM, a TGI (K-562 leukemia) of 97.4 µM and a TGI (ACHN renal) of 32.8 µM. The TGI (SW-620 colon) was 22.4 µM, the TGI (SF-268 CNS) was 68.4 µM and the TGI (NCI/ADR-RES ovarian) was 60.5 µM. The TGI (SK-MEL-2 melanoma) was 46.9 µM, the TGI (OVCAR-3 ovarian) was 13.6 µM and the TGI (HT29 colon) was 27.1 µM. For the same compound, the TGI (MALME-3M melanoma) was 8.96 µM, the TGI (SNB-75 CNS) was 51.4 µM and the TGI (NCI-H460 lung) was 50.2 µM. It also gave a TGI (UO-31 renal) of 36.4 µM, a TGI (MDA-MB-435) of 31.4 µM and a TGI (MDA-N) of 27.8 µM. The TGI (MOLT-4 leukemia) was 40.5 µM, the TGI (CAKI-1 renal) was 16.9 µM and the TGI (PC-3 prostate) was 56.7 µM. For the same compound, the TGI (BT-549 breast) was 21.9 µM.
